Results published in ChEMBL document CHEMBL1268814, “Synthesis and biological evaluation of bivalent ligands for the cannabinoid 1 receptor” (J Med Chem, 2010).
Active and inactive are the calls of the source. No cut-off for these calls is given here.

Assays:
Cannabinoid receptor 1 [1] = target: T1, Cannabinoid receptor 1 (Homo sapiens, UniProt P21554); experiment: Displacement of [3H]CP55940 from human CB1 receptor expressed in HEK293 cells; format: cell-based
Cannabinoid receptor 1 [2] = target: T1, Cannabinoid receptor 1; experiment: biochemical; format: cell-based, HEK293
Cannabinoid receptor 2 = Cannabinoid receptor 2 (Homo sapiens, UniProt P34972); experiment: Displacement of [3H]CP55940 from human CB2 receptor expressed in CHOK1 cells; format: cell-based, CHO-K1
Cannabinoid receptor 1 [3] = target: Cannabinoid receptor 1 (Rattus norvegicus, UniProt P20272); experiment: Antagonist activity at rat brain CB1 receptor assessed as inhibition of [35S]GTPgammaS binding; format: functional
[4] = target: Cannabinoid receptor 1 (Rattus norvegicus) (UniProt P20272); experiment: Antagonist activity at rat brain CB1 receptor assessed as inhibition of [35S]GTPgammaS binding at 10000 nM; format: functional
Cannabinoid receptor 1 [5] = target: T1, Cannabinoid receptor 1; experiment: Antagonist activity at human brain CB1 receptor assessed as inhibition for [35S]GTPgammaS binding; format: functional
Cannabinoid receptor 1 [6] = target: T1, Cannabinoid receptor 1; experiment: Antagonist activity at human brain CB1 receptor assessed as inhibition for [35S]GTPgammaS binding at 10000 nM; format: functional
Cannabinoid receptor 1 [7] = target: T1, Cannabinoid receptor 1; experiment: Antagonist activity at human brain CB1 receptor by calcium mobilization assay; format: functional; conditions: read-out: pA2 (converted)
Cannabinoid receptor 1 [8] = target: T1, Cannabinoid receptor 1; conditions: CHO
Mus musculus = experiment: Inhibition of compound 21-induced antinociception in mouse at 10 mg/kg, ip administered 30 mins before compound-21 dosing by tail flick latency test

Sequence of Cannabinoid receptor 1 (Rattus norvegicus) (P20272 whole entry): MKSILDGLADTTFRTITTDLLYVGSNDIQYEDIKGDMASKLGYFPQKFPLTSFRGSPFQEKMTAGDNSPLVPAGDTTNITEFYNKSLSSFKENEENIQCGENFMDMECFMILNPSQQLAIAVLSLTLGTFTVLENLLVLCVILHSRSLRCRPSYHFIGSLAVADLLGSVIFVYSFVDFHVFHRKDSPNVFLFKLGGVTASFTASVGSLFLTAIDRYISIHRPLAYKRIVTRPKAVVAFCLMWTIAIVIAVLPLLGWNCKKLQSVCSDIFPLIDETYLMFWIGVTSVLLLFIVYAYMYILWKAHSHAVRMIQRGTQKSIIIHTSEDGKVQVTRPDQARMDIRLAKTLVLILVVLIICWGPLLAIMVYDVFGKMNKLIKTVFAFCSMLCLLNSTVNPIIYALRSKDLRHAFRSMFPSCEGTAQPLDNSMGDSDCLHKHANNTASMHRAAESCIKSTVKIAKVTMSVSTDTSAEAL
Sequence of Cannabinoid receptor 1 (Rattus norvegicus, UniProt P20272) (P20272 whole entry): as above
T1 sequence (P21554 whole entry): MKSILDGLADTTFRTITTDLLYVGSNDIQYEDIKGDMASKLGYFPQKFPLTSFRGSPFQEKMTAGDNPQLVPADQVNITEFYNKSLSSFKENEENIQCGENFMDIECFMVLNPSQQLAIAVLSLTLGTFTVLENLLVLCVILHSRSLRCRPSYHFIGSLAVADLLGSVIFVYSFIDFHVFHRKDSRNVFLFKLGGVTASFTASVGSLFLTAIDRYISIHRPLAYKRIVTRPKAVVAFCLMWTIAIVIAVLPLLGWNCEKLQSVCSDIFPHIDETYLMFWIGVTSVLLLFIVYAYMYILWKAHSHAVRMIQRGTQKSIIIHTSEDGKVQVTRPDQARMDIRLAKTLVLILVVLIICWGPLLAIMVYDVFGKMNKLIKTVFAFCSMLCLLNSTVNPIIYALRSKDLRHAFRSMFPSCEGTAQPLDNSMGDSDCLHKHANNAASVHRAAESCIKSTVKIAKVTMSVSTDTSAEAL
Sequence of Cannabinoid receptor 2 (P34972 whole entry): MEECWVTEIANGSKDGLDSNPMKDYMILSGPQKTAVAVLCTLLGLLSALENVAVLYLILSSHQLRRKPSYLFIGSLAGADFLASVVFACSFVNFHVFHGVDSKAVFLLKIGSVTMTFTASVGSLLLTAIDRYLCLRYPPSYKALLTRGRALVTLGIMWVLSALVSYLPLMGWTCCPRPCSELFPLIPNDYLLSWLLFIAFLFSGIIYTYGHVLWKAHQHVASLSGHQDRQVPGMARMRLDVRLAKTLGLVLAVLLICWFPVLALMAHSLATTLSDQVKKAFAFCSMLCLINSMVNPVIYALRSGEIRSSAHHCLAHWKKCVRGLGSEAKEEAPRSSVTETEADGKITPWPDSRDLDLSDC

| SMILES | Ki (Cannabinoid receptor 1 [1]) [nM] | Ki (Cannabinoid receptor 1 [2]) [nM] | Ki (Cannabinoid receptor 2) [nM] | EC50 (Cannabinoid receptor 1 [3]) [nM] | Emax [4] [%] | EC50 (Cannabinoid receptor 1 [5]) [nM] | Emax (Cannabinoid receptor 1 [6]) [%] | Kb (Cannabinoid receptor 1 [7]) [nM] | Ke (Cannabinoid receptor 1 [8]) | inhibition (Mus musculus) |
| --- | --- | --- | --- | --- | --- | --- | --- | --- | --- | --- |
| Cc1c(C(=O)NCCCCCN(C)CCCCCNC(=O)c2nn(-c3ccc(Cl)cc3Cl)c(-c3ccc(Cl)cc3)c2C)nn(-c2ccc(Cl)cc2Cl)c1-c1ccc(Cl)cc1 | 38.7 | 6.35 | 1040 | 1.78 | -3.8 | 59.8 | -13.1 | 11 | 108 nM |  |
| Cc1c(C(=O)NCCCCCCCNCCCCCCCNC(=O)c2nn(-c3ccc(Cl)cc3Cl)c(-c3ccc(Cl)cc3)c2C)nn(-c2ccc(Cl)cc2Cl)c1-c1ccc(Cl)cc1 | 12.3 | 4.41 | 553 | 1190 | -25 | 179 | -38.8 | 8.32 | 567 nM | inactive |
| Cc1c(C(=O)NCCCCCCCCCCCNCCCCCCCCCCCN)nn(-c2ccc(Cl)cc2Cl)c1-c1ccc(Cl)cc1 | 4.56 | 2.3 | 305 | 3620 | -29.2 |  |  | 3.16 | 146 nM |  |
| Cc1c(C(=O)NCCCCCCCCCCCN(C)CCCCCCCCCCCN)nn(-c2ccc(Cl)cc2Cl)c1-c1ccc(Cl)cc1 | 14.7 | 5.51 | 426 | 8770 | -49.3 |  |  | 23.4 | 206 nM |  |
| Cc1c(C(=O)NCCCCCCCN(C)CCCCCCCN)nn(-c2ccc(Cl)cc2Cl)c1-c1ccc(Cl)cc1 | 37.5 | 15.5 | 1930 | 4370 | -62 |  |  | 21.9 | 220 nM | Active |
| Cc1c(C(=O)NCCNCCNC(=O)c2nn(-c3ccc(Cl)cc3Cl)c(-c3ccc(Cl)cc3)c2C)nn(-c2ccc(Cl)cc2Cl)c1-c1ccc(Cl)cc1 | 229 | 94 | 1280 | > 10000 | -35.9 | 237 | -25.5 | 83.2 | 2700 nM |  |
| Cc1c(C(=O)NCCCCCCCNCCCCCCCN)nn(-c2ccc(Cl)cc2Cl)c1-c1ccc(Cl)cc1 | 46.7 | 19.5 | 622 | 3280 | -52.8 |  |  | 20.4 | 503 nM | inactive |
| Cc1c(C(=O)NCCCCCN(C)CCCCCN)nn(-c2ccc(Cl)cc2Cl)c1-c1ccc(Cl)cc1 | 162 | 88.8 |  | 3040 | -53.3 |  |  | 309 | 2870 nM |  |
| Cc1c(C(=O)NCCCCCCCCCCCNCCCCCCCCCCCNC(=O)c2nn(-c3ccc(Cl)cc3Cl)c(-c3ccc(Cl)cc3)c2C)nn(-c2ccc(Cl)cc2Cl)c1-c1ccc(Cl)cc1 | 99.3 | 37 | > 2500 | > 10000 | -12.2 | > 25000 |  | 27.5 | > 10000 nM |  |
| Cc1c(C(=O)NCCCCCCCCCN(C)CCCCCCCCCNC(=O)c2nn(-c3ccc(Cl)cc3Cl)c(-c3ccc(Cl)cc3)c2C)nn(-c2ccc(Cl)cc2Cl)c1-c1ccc(Cl)cc1 | 247 | 94.1 |  | > 10000 |  | 161 | -23 | 29.5 | inactive |  |
| Cc1c(C(=O)NCCCNCCCNC(=O)c2nn(-c3ccc(Cl)cc3Cl)c(-c3ccc(Cl)cc3)c2C)nn(-c2ccc(Cl)cc2Cl)c1-c1ccc(Cl)cc1 | 174 | 41.9 | 496 | 718 | -37.2 | 84.2 | -31.9 | 38.9 | 1300 nM |  |
| Cc1c(C(=O)NCCCCCCCN(C)CCCCCCCNC(=O)c2nn(-c3ccc(Cl)cc3Cl)c(-c3ccc(Cl)cc3)c2C)nn(-c2ccc(Cl)cc2Cl)c1-c1ccc(Cl)cc1 | 17.3 | 27.5 |  | 1460 | -40.8 | 2240 | -32.7 | 4.27 | 478 nM | Active |
| Cc1c(C(=O)NCCCCCNCCCCCN)nn(-c2ccc(Cl)cc2Cl)c1-c1ccc(Cl)cc1 | 349 | 230 | > 2500 | 2220 | -40.7 |  |  | 759 | 5400 nM |  |
| Cc1c(C(=O)NCCCCCCCCCNCCCCCCCCCN)nn(-c2ccc(Cl)cc2Cl)c1-c1ccc(Cl)cc1 | 14 | 5.44 | 419 | 2390 | -65.2 |  |  | 5.62 | 31.6 nM |  |
| Cc1c(C(=O)NCCCCCCCCCNCCCCCCCCCNC(=O)c2nn(-c3ccc(Cl)cc3Cl)c(-c3ccc(Cl)cc3)c2C)nn(-c2ccc(Cl)cc2Cl)c1-c1ccc(Cl)cc1 | 54.1 | 57.4 | > 2500 | 1.34 | 10.4 | 27.9 | 6.5 | 17.4 | 4160 nM |  |
| Cc1c(C(=O)NCCNCCN)nn(-c2ccc(Cl)cc2Cl)c1-c1ccc(Cl)cc1 | 1230 | 506 | > 2500 | 7240 | -22.9 |  |  |  | inactive |  |
| Cc1c(C(=O)NCCCCCNCCCCCNC(=O)c2nn(-c3ccc(Cl)cc3Cl)c(-c3ccc(Cl)cc3)c2C)nn(-c2ccc(Cl)cc2Cl)c1-c1ccc(Cl)cc1 | 68.1 | 30.4 | 451 | > 10000 | -29.6 | 33 | 8.5 | 29.5 | 476 nM |  |
| Cc1c(C(=O)NCCCCCCCCCN(C)CCCCCCCCCN)nn(-c2ccc(Cl)cc2Cl)c1-c1ccc(Cl)cc1 | 10 | 6.12 | 265 | 3400 | -67.9 |  |  | 4.57 | 141 nM |  |
| Cc1c(C(=O)NCCCNCCCN)nn(-c2ccc(Cl)cc2Cl)c1-c1ccc(Cl)cc1 | > 2500 | > 2500 | > 2500 | > 10000 | -34.8 |  |  |  | inactive |  |
| Cc1c(C(=O)NCCCCCCCCCCCN(C)CCCCCCCCCCCNC(=O)c2nn(-c3ccc(Cl)cc3Cl)c(-c3ccc(Cl)cc3)c2C)nn(-c2ccc(Cl)cc2Cl)c1-c1ccc(Cl)cc1 | 1890 | 1290 |  | 29.3 | 17.3 | > 25000 |  | 501 | inactive |  |
